The source of these data is ChEMBL document CHEMBL5465560, “Selectivity Literature for EUbOPEN Chemogenomic Library” (2024).

Structures are written as SMILES.

In assay [1] the target is Homeodomain-interacting protein kinase 2 (Homo sapiens, UniProt Q9H2X6). In words: Selectivity interaction (Kinase panel (Z-LYTE Assay)) EUB0001632a HIPK2. The conditions noted are these: at 10 µM.
Assay [2] concerns the target T1, Ephrin type-B receptor 4 (Homo sapiens) (UniProt P54760).
T1 sequence (whole entry): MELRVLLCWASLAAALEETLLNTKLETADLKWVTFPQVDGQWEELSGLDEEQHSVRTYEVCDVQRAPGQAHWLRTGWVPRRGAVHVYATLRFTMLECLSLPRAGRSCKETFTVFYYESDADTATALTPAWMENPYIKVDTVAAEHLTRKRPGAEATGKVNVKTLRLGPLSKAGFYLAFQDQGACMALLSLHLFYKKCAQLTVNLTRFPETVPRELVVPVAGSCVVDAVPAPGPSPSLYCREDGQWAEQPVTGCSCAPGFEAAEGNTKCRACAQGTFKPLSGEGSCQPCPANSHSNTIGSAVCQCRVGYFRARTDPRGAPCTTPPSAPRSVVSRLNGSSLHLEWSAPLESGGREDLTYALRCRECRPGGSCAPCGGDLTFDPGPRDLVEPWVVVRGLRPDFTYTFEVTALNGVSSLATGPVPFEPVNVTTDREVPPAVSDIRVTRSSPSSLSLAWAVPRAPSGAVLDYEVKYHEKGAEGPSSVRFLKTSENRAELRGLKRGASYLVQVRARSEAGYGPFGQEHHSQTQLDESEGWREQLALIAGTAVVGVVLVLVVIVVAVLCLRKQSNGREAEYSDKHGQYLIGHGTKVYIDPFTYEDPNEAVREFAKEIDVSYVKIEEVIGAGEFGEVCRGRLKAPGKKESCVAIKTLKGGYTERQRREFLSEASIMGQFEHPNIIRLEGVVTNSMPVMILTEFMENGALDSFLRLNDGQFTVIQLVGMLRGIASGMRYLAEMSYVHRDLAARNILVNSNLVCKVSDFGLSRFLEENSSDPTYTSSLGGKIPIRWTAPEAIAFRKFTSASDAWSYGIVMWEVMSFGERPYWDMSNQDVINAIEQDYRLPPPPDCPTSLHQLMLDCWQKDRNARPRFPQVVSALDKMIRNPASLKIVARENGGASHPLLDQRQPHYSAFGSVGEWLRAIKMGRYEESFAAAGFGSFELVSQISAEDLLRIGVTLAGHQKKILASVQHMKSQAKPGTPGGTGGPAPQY
In words: Selectivity interaction (Ambit KINOMEscan and KiNATiv profiling in Jurkat cells) EUB0000090b EPHB4. The conditions noted are these: at 1 µM. It is filed as cell-based.

The target of assay [3] is T2, Aurora kinase A (Homo sapiens) (UniProt O14965).
T2 sequence (whole entry): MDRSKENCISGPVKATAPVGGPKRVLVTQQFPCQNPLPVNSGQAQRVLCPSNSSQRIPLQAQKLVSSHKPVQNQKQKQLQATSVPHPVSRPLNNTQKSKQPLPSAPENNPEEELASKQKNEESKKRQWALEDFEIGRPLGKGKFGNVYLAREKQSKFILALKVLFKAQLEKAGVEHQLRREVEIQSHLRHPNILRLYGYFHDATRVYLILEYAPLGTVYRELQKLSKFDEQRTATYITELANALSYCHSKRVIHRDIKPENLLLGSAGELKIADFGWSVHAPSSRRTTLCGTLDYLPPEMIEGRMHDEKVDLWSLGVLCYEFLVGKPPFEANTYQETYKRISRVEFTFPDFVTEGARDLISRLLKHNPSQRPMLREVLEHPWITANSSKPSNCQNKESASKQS
In words: Selectivity interaction (ActivX KiNativ screen (kinase selectivity in THP-1 cell lysates)) EUB0000639a STK6. It is filed as subcellular. The note with it: lysate, at 0.04 µM.

Assay [4] addresses T3, Discoidin domain-containing receptor 2 (Homo sapiens) (UniProt Q16832).
T3 sequence (whole entry): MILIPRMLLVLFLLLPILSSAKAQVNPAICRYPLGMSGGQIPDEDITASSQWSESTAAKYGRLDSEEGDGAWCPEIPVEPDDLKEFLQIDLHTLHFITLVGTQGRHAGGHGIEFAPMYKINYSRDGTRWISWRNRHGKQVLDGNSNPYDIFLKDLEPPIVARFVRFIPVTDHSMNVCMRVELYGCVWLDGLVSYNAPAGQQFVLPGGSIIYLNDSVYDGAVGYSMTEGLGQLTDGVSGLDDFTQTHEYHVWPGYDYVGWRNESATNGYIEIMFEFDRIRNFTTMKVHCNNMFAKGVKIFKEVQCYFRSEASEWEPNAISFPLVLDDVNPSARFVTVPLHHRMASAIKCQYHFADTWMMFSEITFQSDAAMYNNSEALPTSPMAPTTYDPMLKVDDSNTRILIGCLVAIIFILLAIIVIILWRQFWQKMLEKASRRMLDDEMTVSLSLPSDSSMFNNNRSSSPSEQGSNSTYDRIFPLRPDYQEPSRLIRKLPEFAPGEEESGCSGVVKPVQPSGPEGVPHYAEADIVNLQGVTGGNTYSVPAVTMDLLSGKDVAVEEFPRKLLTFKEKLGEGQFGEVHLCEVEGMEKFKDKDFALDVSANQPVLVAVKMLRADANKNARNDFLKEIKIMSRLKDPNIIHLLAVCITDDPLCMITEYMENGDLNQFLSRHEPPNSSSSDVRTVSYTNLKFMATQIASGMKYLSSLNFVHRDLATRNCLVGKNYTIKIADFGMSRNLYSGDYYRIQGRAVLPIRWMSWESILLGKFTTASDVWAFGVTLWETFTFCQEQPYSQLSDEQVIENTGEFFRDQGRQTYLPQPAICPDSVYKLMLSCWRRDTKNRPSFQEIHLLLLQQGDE
The conditions noted are these: at 10 µM.

Homeodomain-interacting protein kinase 2, sequence (Q9H2X6 whole entry, looked up): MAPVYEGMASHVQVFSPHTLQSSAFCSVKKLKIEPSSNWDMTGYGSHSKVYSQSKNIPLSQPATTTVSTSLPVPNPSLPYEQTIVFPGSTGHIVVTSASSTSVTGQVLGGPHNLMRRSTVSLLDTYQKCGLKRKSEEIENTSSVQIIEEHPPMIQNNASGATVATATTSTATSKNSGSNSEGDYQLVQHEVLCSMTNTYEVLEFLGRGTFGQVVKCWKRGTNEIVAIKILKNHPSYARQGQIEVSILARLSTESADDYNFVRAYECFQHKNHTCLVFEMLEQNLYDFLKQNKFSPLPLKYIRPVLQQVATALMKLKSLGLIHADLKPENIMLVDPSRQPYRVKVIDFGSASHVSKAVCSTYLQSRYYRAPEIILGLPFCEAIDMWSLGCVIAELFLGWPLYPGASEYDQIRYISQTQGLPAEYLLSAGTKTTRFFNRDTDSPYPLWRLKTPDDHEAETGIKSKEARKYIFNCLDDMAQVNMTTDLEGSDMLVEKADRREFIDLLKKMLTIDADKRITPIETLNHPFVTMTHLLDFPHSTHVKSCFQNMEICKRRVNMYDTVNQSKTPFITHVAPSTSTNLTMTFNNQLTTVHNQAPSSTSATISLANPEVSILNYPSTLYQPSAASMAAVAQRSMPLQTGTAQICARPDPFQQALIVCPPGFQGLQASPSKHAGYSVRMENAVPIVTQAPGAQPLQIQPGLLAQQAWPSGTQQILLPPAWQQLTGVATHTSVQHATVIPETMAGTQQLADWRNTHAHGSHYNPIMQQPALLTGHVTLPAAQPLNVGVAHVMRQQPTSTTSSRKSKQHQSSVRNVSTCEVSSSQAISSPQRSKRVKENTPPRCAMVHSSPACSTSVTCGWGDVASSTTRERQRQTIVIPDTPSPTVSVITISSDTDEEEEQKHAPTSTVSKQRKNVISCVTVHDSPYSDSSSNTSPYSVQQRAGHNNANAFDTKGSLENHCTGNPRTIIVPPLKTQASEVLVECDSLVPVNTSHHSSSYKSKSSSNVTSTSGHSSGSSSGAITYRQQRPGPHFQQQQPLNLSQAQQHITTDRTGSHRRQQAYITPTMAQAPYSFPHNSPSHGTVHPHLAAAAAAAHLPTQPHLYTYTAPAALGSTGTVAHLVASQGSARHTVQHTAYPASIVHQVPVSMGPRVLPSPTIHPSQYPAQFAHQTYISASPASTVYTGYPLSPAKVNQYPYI

As to `Cn1cc(-n2cnc3c(NCc4nc5cc(Cl)c(Cl)cc5[nH]4)nc(N4CCOCC4)nc32)cn1`, in assay [1], the % of control came to 5.72%. Compound `CN(C)C/C=C/C(=O)Nc1ccc(C(=O)N2CCCC(Nc3ncc(Cl)c(-c4c[nH]c5ccccc45)n3)C2)cc1` (centres undefined) registered a % of control in assay [2] of 94%. Regarding `CC[C@@H]1[C@H](F)C(=O)N[C@@H]1COc1nccc2cc(C(N)=O)c(OC)cc12` [ZIMLOVISERTIB], in assay [3], the % of inhibition was -1.3%. In turn, `COCC(=O)NC/C=C/c1ccc2ncnc(Nc3ccc(Oc4ccc(C)nc4)c(C)c3)c2c1` [CP-724714] had a % of control in assay [4] of 100%.
